Laboratory results from patent US20250127741A1, “MEDICINAL COMPOSITION COMPRISING RIBOSE AND AMINO ACIDS” (MEE-HU PHARMA GMBH, priority 2021, published 2025).

Tested on: resistant strain of E. Coli (O157.H7)
Test: In vivo animal study #2: granuloma pouch model in Wistar rats, bacterial counts in pouch fluid
Details: male Wistar rats; given alone every 12 h, six doses (co-trimoxazole 30 mg/kg i.p.; inventive composition 500 mg/kg p.o.); all time intervals
Procedure: Male Wistar rats, weighing 200-250 g, were infected with a resistant strain of E. Coli (O157.H7) using the granuloma pouch model. Specifically, pouches were produced by injecting 30 ml of sterile filtered air followed by injection of 0.5 ml of 0.5% croton oil in sesame seed oil deep into the loose connective dorsal tissue. Two days later, approximately 10 ml of air were withdrawn, and after 2 more days, 2 ml of 1% peptone and 0.35% agar in saline solution were injected in the pouch. On day 10, rats were infected with 10^6 CFU of E. coli suspended in 1.5 ml of THB containing 2.5% gastric mucin and 0.35% agar.
The rats were divided in groups of five rats, and the following drugs, either alone or concurrently administered, were administered every 12 h for three consecutive days, making a total of six doses, starting 24 h after infection: co-trimoxazole (Septrin, GlaxoSmithKline) 30 mg/kg (i.p) and the inventive composition 500 mg/kg (p.o) (the 500 mg referring to the weight of the lyophilisate of Table 1 contained in the amount of mixed solution administered). […]
Samples (0.5 mL) of pouch fluid were withdrawn from each animal just before treatment (0 time), 3 h after the first dose, just before the last dose, 3 and 24 h after the last dose. […] The results represent the average values obtained from all the animals in the same group at the same intervals and expressed as log 10 CFU/ml. […]

co-trimoxazole [cotrimoxazole]
bacterial counts in pouch fluid, difference to control group: no significant differences
